Assays:
Format in all cases: functional, organism-based
Human alphaherpesvirus 2 [1] = test: Antiviral activity against HSV-2 infected in human ARPE-19 cells assessed as inhibition of viral replication incubated for 16 hrs by fluorescence based analysis; conditions: Human alphaherpesvirus 2, ARPE-19, 16 h
Human alphaherpesvirus 1 [2] = test: Antiviral activity against HSV-1 by CPE assay
Human alphaherpesvirus 2 [3] = test: Antiviral activity against HSV-2
Human alphaherpesvirus 1 [4] = test: Antiviral activity against HSV-1

Structure (SMILES) | IC50 (Human alphaherpesvirus 2 [1]) [nM] | IC50 (Human alphaherpesvirus 1 [2]) [nM] | IC50 (Human alphaherpesvirus 2 [3]) [nM] | IC50 (Human alphaherpesvirus 2 [3]; Human alphaherpesvirus 2) [nM] | further results
CS(=N)(=O)c1cc2c(cc1F)CCN2C(=O)[C@@H]1Cc2ccc(-c3ccccn3)cc2C1 (stereo partly specified) | 37 | – | – | – | –
Cc1nc(N(C)C(=O)C2Cc3ccc(-c4cc(F)ccc4F)cc3C2)sc1S(C)(=N)=O (stereo in doubt; 2b) | – | 300 | 1250 | – | –
NS(=O)(=O)c1cc2c(cc1F)CCN2C(=O)[C@@H]1Cc2ccc(-c3ccccn3)cc2C1 | 6 | – | – | – | –
Cc1nc(N(C)C(=O)[C@@H]2Cc3ccc(-c4cc(F)ccc4F)cc3C2)sc1S(N)(=O)=O | – | – | – | 16 | IC50 (Human alphaherpesvirus 1 [2]; Human alphaherpesvirus 1): 1 nM
Cc1nc(N(C)C(=O)[C@@H]2Cc3ccc(-c4ccccn4)cc3C2)sc1S(N)(=O)=O | – | – | – | – | IC50 (Human alphaherpesvirus 1 [2]; Human alphaherpesvirus 1): 7 nM
Cc1nc(N(C)C(=O)C2Cc3ccc(-c4cc(F)ccc4F)cc3C2)sc1S(C)(=N)=O (stereo in doubt; 2d) | – | 8000 | 50000 | – | –
Cc1nc(N(C)C(=O)Cc2ccc(-c3ccccn3)cc2)sc1S(N)(=O)=O [PRITELIVIR] | – | – | – | 20 | IC50 (Human alphaherpesvirus 1 [4]): 20 nM
Cc1nc(N(C)C(=O)Cc2ccc(-c3cc(F)ccc3F)cc2)sc1S(C)(=N)=O (stereo unspecified) | – | – | – | 28 | IC50 (Human alphaherpesvirus 1 [4]): 19 nM
Cc1nc(N(C)C(=O)C2Cc3ccc(-c4cc(F)ccc4F)cc3C2)sc1S(C)(=N)=O (stereo in doubt; 2c) | – | 400 | 2000 | – | –
NS(=O)(=O)c1cc2c(cc1F)CCN2C(=O)[C@@H]1Cc2ccc(-c3cc(F)ccc3F)cc2C1 | 12 | – | – | – | –
CS(=N)(=O)c1cc2c(cc1F)CCN2C(=O)[C@@H]1Cc2ccc(-c3cc(F)ccc3F)cc2C1 (stereo partly specified) | 48 | – | – | – | –
Cc1nc(N(C)C(=O)C2Cc3ccc(-c4cc(F)ccc4F)cc3C2)sc1S(C)(=N)=O (stereo in doubt; 2a) | – | 25000 | 25000 | – | –
Cc1nc(N(C)C(=O)[C@H]2Cc3ccc(-c4cc(F)ccc4F)cc3C2)sc1S(N)(=O)=O | – | – | – | 16000 | IC50 (Human alphaherpesvirus 1 [2]; Human alphaherpesvirus 1): 2000 nM

Reference: ChEMBL document CHEMBL5576046, “Replacement of sulfonamide by sulfoximine within a helicase-primase inhibitor with restricted flexibility” (Bioorg Med Chem Lett, 2024)
